# Measured values taken from patent US12435092B2, “Substituted imidazo[1,2-A]quinazolines as inhibitors of PARG” (858 Therapeutics, Inc., priority 2022, dated 2025).
# Molecular target: T1, cellular PARG (Homo sapiens, UniProt Q86W56)
# T1 construct: endogenous in cells; host or cells: HeLa
# Experiment: Nuclear PAR accumulation assay (immunofluorescence high-content imaging)
# Type: cell-based
# Details: HeLa cells, 1 hour compound treatment then MMS 50 μg/mL for an additional hour
# How it was run: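 HeLa cells pretreated 1 h at 37 °C with compound, then 1 h with 50 μg/mL MMS (final), methanol-fixed and immunostained for PAR with DAPI nuclear counterstain. Nuclear PAR intensity and percent PAR-positive cells quantified by high-content imaging (≥1,000 cells/well). IC50 by four-parameter logistic fit, normalized to 0.1% DMSO and reference-compound controls.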
# T1 sequence (Q86W56 whole entry): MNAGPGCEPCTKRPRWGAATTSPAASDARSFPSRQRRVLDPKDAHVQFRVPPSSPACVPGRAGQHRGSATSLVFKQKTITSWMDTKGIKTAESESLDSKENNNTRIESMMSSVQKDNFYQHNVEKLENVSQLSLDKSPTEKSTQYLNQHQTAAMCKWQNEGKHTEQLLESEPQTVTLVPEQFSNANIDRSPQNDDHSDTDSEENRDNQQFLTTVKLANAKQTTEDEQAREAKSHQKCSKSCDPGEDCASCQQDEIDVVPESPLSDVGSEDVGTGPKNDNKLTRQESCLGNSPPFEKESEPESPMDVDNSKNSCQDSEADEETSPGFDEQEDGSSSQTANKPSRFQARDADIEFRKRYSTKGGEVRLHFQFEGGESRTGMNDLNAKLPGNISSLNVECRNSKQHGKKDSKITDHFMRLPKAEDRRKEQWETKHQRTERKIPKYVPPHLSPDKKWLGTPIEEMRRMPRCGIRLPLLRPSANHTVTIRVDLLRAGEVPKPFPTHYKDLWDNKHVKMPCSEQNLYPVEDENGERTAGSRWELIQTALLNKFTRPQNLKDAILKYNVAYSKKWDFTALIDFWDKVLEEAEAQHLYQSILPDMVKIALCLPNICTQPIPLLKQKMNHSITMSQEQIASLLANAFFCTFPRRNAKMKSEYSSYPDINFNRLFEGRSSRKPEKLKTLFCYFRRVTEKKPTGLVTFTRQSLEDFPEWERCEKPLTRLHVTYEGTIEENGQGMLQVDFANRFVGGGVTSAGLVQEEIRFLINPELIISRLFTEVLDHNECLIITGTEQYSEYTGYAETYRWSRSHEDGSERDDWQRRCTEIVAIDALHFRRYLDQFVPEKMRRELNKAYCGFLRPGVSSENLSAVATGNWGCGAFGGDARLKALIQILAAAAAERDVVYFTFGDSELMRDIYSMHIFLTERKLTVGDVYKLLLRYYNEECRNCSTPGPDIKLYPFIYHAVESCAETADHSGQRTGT
row,Structure (SMILES),IC50
1,"Cn1cc(CN2C(=O)c3cc(S(=O)(=O)NC4(C)CC4)ccc3N3C2=NCC32COC2)cn1 [Example 105, 4-((1-methyl-1H-pyrazol-4-yl)methyl)-N-(1-methylcyclopropyl)-5-oxo-4,5-dihydro-2H-spiro[imidazo[1,2-a]quinazoline-1,3′-oxetane]-7-sulfonamide]",100 to 1000 nM
2,"C[C@@H]1CN2C(=N1)N(Cc1cnn(C)c1)C(=O)c1cc(S(=O)(=O)NC3(C)CC3)ccc12 [Example 107, (R)-2-methyl-4-((1-methyl-1H-pyrazol-4-yl)methyl)-N-(1-methylcyclopropyl)-5-oxo-1,2,4,5-tetrahydroimidazo[1,2-a]quinazoline-7-sulfonamide]",100 to 1000 nM
3,"C[C@@H]1N2C(=NC1(C)C)N(Cc1cnn(C)c1)C(=O)c1cc(S(=O)(=O)NC3(C)CC3)ccc12 [Example 110, (S)-1,2,2-trimethyl-4-((1-methyl-1H-pyrazol-4-yl)methyl)-N-(1-methylcyclopropyl)-5-oxo-1,2,4,5-tetrahydroimidazo[1,2-a]quinazoline-7-sulfonamide]",100 to 1000 nM
4,"Cc1ncc(CN2C(=O)c3cc(S(=O)(=O)NC4(C)CC4)ccc3N3C2=NC[C@H]3C)[nH]1 [Example 112, (R)-1-methyl-4-((2-methyl-1H-imidazol-5-yl)methyl)-N-(1-methylcyclopropyl)-5-oxo-1,2,4,5-tetrahydroimidazo[1,2-a]quinazoline-7-sulfonamide]",1000 to 10000 nM
5,"C[C@@H]1CN=C2N1c1ccc(S(=O)(=O)NC3(C)CC3)cc1C(=O)N2C1(c2cnn(C)c2)CC1 [Example 114, (R)-1-methyl-4-(1-(1-methyl-1H-pyrazol-4-yl)cydopropyl)-N-(1-methylcyclopropyl)-5-oxo-1,2,4,5-tetrahydroimidazo[1,2-a]quinazoline-7-sulfonamide]",1000 to 10000 nM
6,"Cc1ncn(C)c1CN1C(=O)c2cc(S(=O)(=O)NC3(C)CC3)ccc2N2C1=NC[C@H]2C [Example 115, (R)-4-((1,4-dimethyl-1H-imidazol-5-yl)methyl)-1-methyl-N-(1-methylcyclopropyl)-5-oxo-1,2,4,5-tetrahydroimidazo[1,2-a]quinazoline-7-sulfonamide]",100 to 1000 nM
7,"Cn1cc(CN2C(=O)c3cc(S(=O)(=O)NC4(C)CC4)ccc3N3CC4(COC4)N=C23)cn1 [Example 116, 4-((1-methyl-1H-pyrazol-4-yl)methyl)-N-(1-methylcyclopropyl)-5-oxo-4,5-dihydro-1H-spiro[imidazo[1,2-a]quinazoline-2,3′-oxetane]-7-sulfonamide]",100 to 1000 nM
8,"CCC1(C)CN2C(=N1)N(Cc1cnn(C)c1)C(=O)c1cc(S(=O)(=O)NC3(C)CC3)ccc12 (centres unmarked) [Example 117, 2-ethyl-2-methyl-4-((1-methyl-1H-pyrazol-4-yl)methyl)-N-(1-methylcyclopropyl)-5-oxo-1,2,4,5-tetrahydroimidazo[1,2-a]quinazoline-7-sulfonamide]",≤ 100 nM
9,"C[C@@H]1CN=C2N(Cc3cnn4c3CCC4)C(=O)c3cc(S(=O)(=O)NC4(C)CC4)ccc3N21 [Example 118, (R)-4-((5,6-dihydro-4H-pyrrolo[1,2-b]pyrazol-3-yl)methyl)-1-methyl-N-(1-methylcyclopropyl)-5-oxo-1,2,4,5-tetrahydroimidazo[1,2-a]quinazoline-7-sulfonamide]",≤ 100 nM
10,"C[C@@H]1CN=C2N(Cc3cnn4c3OCCC4)C(=O)c3cc(S(=O)(=O)NC4(C)CC4)ccc3N21 [Example 119, (R)-4-((6,7-dihydro-5H-pyrazolo[5,1-b][1,3]oxazin-3-yl)methyl)-1-methyl-N-(1-methylcyclopropyl)-5-oxo-1,2,4,5-tetrahydroimidazo[1,2-a]quinazoline-7-sulfonamide]",≤ 100 nM
11,"Cc1nc(C)c(CN2C(=O)c3cc(S(=O)(=O)NC4(C)CC4)ccc3N3C2=NC[C@H]3C)[nH]1 [Example 120, (R)-4-((2,4-dimethyl-1H-imidazol-5-yl)methyl)-1-methyl-N-(1-methylcyclopropyl)-5-oxo-1,2,4,5-tetrahydroimidazo[1,2-a]quinazoline-7-sulfonamide]",1000 to 10000 nM
12,"Cc1nnsc1CN1C(=O)c2cc(S(=O)(=O)NC3(C)CC3)ccc2N2C1=NC[C@H]2C [Example 121, (R)-1-methyl-4-((4-methyl-1,2,3-thiadiazol-5-yl)methyl)-N-(1-methylcyclopropyl)-5-oxo-1,2,4,5-tetrahydroimidazo[1,2-a]quinazoline-7-sulfonamide]",≤ 100 nM
13,"[2H]C([2H])(c1cnn2c1CCC2)N1C(=O)c2cc(S(=O)(=O)NC3(C)CC3)ccc2N2C1=NC[C@H]2C [Example 122, (R)-4-(dideutero(5,6-dihydro-4H-pyrrolo[1,2-b]pyrazol-3-yl)methyl)-1-methyl-N-(1-methylcyclopropyl)-5-oxo-1,2,4,5-tetrahydroimidazo[1,2-a]quinazoline-7-sulfonamide]",≤ 100 nM

# The remaining lines, values ahead:
row,IC50,Structure (SMILES)
1,≤ 100 nM,"Cn1cc(CN2C(=O)c3cc(S(=O)(=O)NC4(C)CC4)ccc3N3CC4(CCOC4)N=C23)cn1 (centres unmarked) [Example 103, 4′-((1-methyl-1H-pyrazol-4-yl)methyl)-N-(1-methylcyclopropyl)-5′-oxo-4,4′,5,5′-tetrahydro-1′H,2H-spiro[furan-3,2′-imidazo[1,2-a]quinazoline]-7′-sulfonamide]"
2,≤ 100 nM,"Cn1cc(CN2C(=O)c3cc(S(=O)(=O)NC4(C)CC4)ccc3N3C2=NCC32CCC2)cn1 [Example 104, 4′-((1-methyl-1H-pyrazol-4-yl)methyl)-N-(1-methylcyclopropyl)-5′-oxo-4′,5′-dihydro-2′H-spiro[cyclobutane-1,1′-imidazo[1,2-a]quinazoline]-7′-sulfonamide]"
3,≤ 100 nM,"C[C@H]1CN2C(=N1)N(Cc1cnn(C)c1)C(=O)c1cc(S(=O)(=O)NC3(C)CC3)ccc12 [Example 106, (S)-2-methyl-4-((1-methyl-1H-pyrazol-4-yl)methyl)-N-(1-methylcyclopropyl)-5-oxo-1,2,4,5-tetrahydroimidazo[1,2-a]quinazoline-7-sulfonamide]"
4,≤ 100 nM,"C[C@@H]1N=C2N(Cc3cnn(C)c3)C(=O)c3cc(S(=O)(=O)NC4(C)CC4)ccc3N2[C@@H]1C [Example 108, (1R,2S)-1,2-dimethyl-4-((1-methyl-1H-pyrazol-4-yl)methyl)-N-(1-methylcyclopropyl)-5-oxo-1,2,4,5-tetrahydroimidazo[1,2-a]quinazoline-7-sulfonamide]"
5,≤ 100 nM,"C[C@@H]1[C@@H](C)N=C2N(Cc3cnn(C)c3)C(=O)c3cc(S(=O)(=O)NC4(C)CC4)ccc3N21 [Example 109, (1R,2R)-1,2-dimethyl-4-((1-methyl-1H-pyrazol-4-yl)methyl)-N-(1-methylcyclopropyl)-5-oxo-1,2,4,5-tetrahydroimidazo[1,2-a]quinazoline-7-sulfonamide]"
6,≤ 100 nM,"C[C@H]1N2C(=NC1(C)C)N(Cc1cnn(C)c1)C(=O)c1cc(S(=O)(=O)NC3(C)CC3)ccc12 [Example 111, (R)-1,2,2-trimethyl-4-((1-methyl-1H-pyrazol-4-yl)methyl)-N-(1-methylcyclopropyl)-5-oxo-1,2,4,5-tetrahydroimidazo[1,2-a]quinazoline-7-sulfonamide]"
7,≤ 100 nM,"[2H]C([2H])(c1sc(C)nc1C)N1C(=O)c2cc(S(=O)(=O)NC3(C)CC3)c(F)cc2N2C1=NC[C@H]2C [Example 113, (R)-4-(dideutero(2,4-dimethylthiazol-5-yl)methyl)-8-fluoro-1-methyl-N-(1-methylcyclopropyl)-5-oxo-1,2,4,5-tetrahydroimidazo[1,2-a]quinazoline-7-sulfonamide]"
